Values after ≈ are worked out from the molar mass of the structure shown. One block for each compound: values may come before it. Active and inactive are the calls of the source. The calls are words filed in the database; no cut-off is given here.
Experiments:
[1] = system: Escherichia coli; assay: Inhibition of Escherichia coli IMP4 assessed as potentiation of meropenem-induced antibacterial activity by measuring zone of inhibition at 10 uL after 16 to 18 hrs by disc diffusion method (reference value: 9.8 +/- 0.6 millimeter)
[2] = biological target: Metallo-beta-lactamase type 2 (Klebsiella pneumoniae) (UniProt C7C422)
[3] = system: Proteus mirabilis; assay: Inhibition of Proteus mirabilis NDM1 assessed as potentiation of meropenem-induced antibacterial activity by measuring meropenem MIC at 64 ug/ml after 16 to 18 hrs by broth microdilution method (reference value: 20 to 160 ug/ml)
[4] = system: Escherichia coli; assay: Inhibition of Escherichia coli IMP4 assessed as potentiation of meropenem-induced bactericidal activity by measuring bacterial count at 4 times MIC incubated for 8 hrs followed by replating on agar plates and further incubated for 16 to 18 hrs measured for 24 hrs by time kill assay
[5] = biological target: T1, Metallo-beta-lactamase NDM-4 (Escherichia coli) (UniProt H6WZS9); assay: Inhibition of Escherichia coli NDM4 assessed as potentiation of meropenem-induced antibacterial activity by measuring zone of inhibition at 10 uL after 16 to 18 hrs by disc diffusion method (reference value: 9.6 +/- 0.5 millimeter)
T1 sequence (whole entry): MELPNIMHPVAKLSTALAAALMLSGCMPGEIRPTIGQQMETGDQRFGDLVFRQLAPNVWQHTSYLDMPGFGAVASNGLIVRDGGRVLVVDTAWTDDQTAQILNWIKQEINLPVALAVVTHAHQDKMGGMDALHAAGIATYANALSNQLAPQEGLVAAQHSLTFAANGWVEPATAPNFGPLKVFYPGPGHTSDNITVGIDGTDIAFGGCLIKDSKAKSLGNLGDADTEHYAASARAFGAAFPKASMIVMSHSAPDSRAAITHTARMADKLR

[6] = biological target: Beta-lactamase (Klebsiella pneumoniae) (UniProt Q4LDF1)
[7] = biological target: Beta-lactamase NDM-1 (Escherichia coli) (UniProt E5KIY2)
[8] = system: Escherichia coli; assay: Inhibition of Escherichia coli IMP4 assessed as potentiation of meropenem-induced antibacterial activity by measuring meropenem MIC at 64 ug/ml after 16 to 18 hrs by broth microdilution method (reference value: 20 to 160 ug/ml)
[9] = system: Citrobacter freundii; assay: Inhibition of Citrobacter freundii NDM1 assessed as potentiation of meropenem-induced antibacterial activity by measuring meropenem MIC at 64 ug/ml after 16 to 18 hrs by broth microdilution method (reference value: 20 ug/ml)
[10] = system: HeLa; assay: Cytotoxicity against human HeLa cells after 24 hrs by CCK8 assay; assay type: cell-based
[11] = system: Escherichia coli; assay: (§1) Inhibition of Escherichia coli IMP4 assessed as potentiation of meropenem-induced bactericidal activity by measuring reduction in bacterial colonies at 8 times MIC incubated up to 3 hrs followed by replating on agar plates and further incubated for 16 to 18 hrs measured for 24 hrs by time kill assay
[12] = system: Escherichia coli; assay: Toxicity against Escherichia coli harboring IMP4 assessed as reduction in bacterial growth after 16 to 18 hrs by broth microdilution method; assay type: organism-based
[13] = system: Erythrocyte; assay: Hemolytic activity against sheep RBC at 1.953 to 1000 ug/ml after 1 hr; assay type: ADME, cell-based, Ovis aries
[14] = system: Escherichia coli; assay: Toxicity against Escherichia coli harboring NDM1 after 16 to 18 hrs by broth microdilution method; assay type: organism-based
[15] = system: HeLa; assay: Cytotoxicity against human HeLa cells at 32 ug/ml after 24 hrs by calcein-AM/propidium iodide staining based fluorescence microscopic analysis; assay type: cell-based
[16] = system: Citrobacter freundii; assay: Inhibition of Citrobacter freundii NDM1 assessed as potentiation of meropenem-induced antibacterial activity by measuring fold reduction in meropenem MIC at 64 ug/ml after 16 to 18 hrs by broth microdilution method relative to meropenem alone
[17] = system: Proteus mirabilis; assay: Inhibition of Proteus mirabilis NDM1 assessed as potentiation of meropenem-induced antibacterial activity by measuring fold reduction in meropenem MIC at 64 ug/ml after 16 to 18 hrs by broth microdilution method relative to meropenem alone
[18] = system: Escherichia coli; assay: Inhibition of Escherichia coli IMP4 assessed as potentiation of meropenem-induced antibacterial activity by measuring bacterial growth at 64 ug/ml after 16 to 18 hrs by broth microdilution method (reference value: 93.43 +/- 2.12%); parameters: scale not given: the % may be the effect or the level left
[19] = system: Escherichia coli; assay: Inhibition of Escherichia coli IMP4 assessed as potentiation of meropenem-induced antibacterial activity by measuring reduction in bacterial growth at 64 ug/ml after 16 to 18 hrs in presence of ZnCl2 by broth microdilution method
[20] = system: Escherichia coli; assay: Inhibition of Escherichia coli IMP4 assessed as potentiation of meropenem-induced bactericidal activity by measuring reduction in bacterial colonies at 8 times MIC incubated up to 8 hrs followed by replating on agar plates and further incubated for 16 to 18 hrs measured for 24 hrs by time kill assay
[21] = system: Escherichia coli; assay: Inhibition of Escherichia coli IMP4 assessed as potentiation of meropenem-induced bactericidal activity by measuring bacterial count at 4 times MIC incubated for 24 hrs followed by replating on agar plates and further incubated for 16 to 18 hrs measured for 24 hrs by time kill assay
[22] = biological target: Beta-lactamase NDM-1 (Escherichia coli) (UniProt E5KIY2); remark: listed apart in the source
[23] = biological target: Beta-lactamase NDM-1 (Escherichia coli) (UniProt E5KIY2); remark: listed apart in the source
[24] = system: Escherichia coli; assay: Inhibition of Escherichia coli IMP4 assessed as potentiation of meropenem-induced bactericidal activity by measuring bacterial count at 8 times MIC incubated for 24 hrs followed by replating on agar plates and further incubated for 16 to 18 hrs measured for 24 hrs by time kill assay
[25] = system: Escherichia coli; assay: as §1, with “colonies at 4 to 8 times” for “colonies at 8 times”, “MIC incubated for 3 hrs” for “MIC incubated up to 3 hrs”

Compound: CCN(CC)C(=S)[S-].[Na+] [DITIOCARB SODIUM]
- inhibition zone (IZ) [1]: 17.2 mm
- MIC [2]: < 2 µg/mL
- MIC [3]: 0.5 to 4 µg/mL
- Activity [4]: 3 to 4 log10CFU/ml
- inhibition zone (IZ) [5]: 18.9 mm
- MIC [6]: < 2 µg/mL
- MIC [7]: 1 to 16 µg/mL
- MIC [8]: < 16 µg/mL
- MIC [9]: < 0.0312 µg/mL
- IC50 [10]: > 1280 µg/mL
- Activity [11]: Active

Compound: CCN(CC)C(=S)[S][Na] [DITIOCARB SODIUM]
- Activity [12]: Non-Toxic
- Activity [13]: Non-Toxic
- MIC [14]: > 128 µg/mL
- Activity [15]: Non-Toxic

Compound: S=C(S)N1CCOCC1
- MIC [2]: 4 to 16 µg/mL (≈ 24.5 to 98 µM)
- MIC [3]: 16 µg/mL
- MIC [6]: 8 to 16 µg/mL (≈ 49 to 98 µM)
- MIC [7]: 8 µg/mL (≈ 49 µM)
- MIC [8]: 2 to 16 µg/mL
- MIC [9]: 2 µg/mL

Compound: S=C(S)N1CCN(C(=S)S)CC1
- inhibition zone (IZ) [1]: inactive
- MIC [2]: 4 to 16 µg/mL (≈ 16.8 to 67.1 µM)
- MIC [3]: 4 to 8 µg/mL
- inhibition zone (IZ) [5]: inactive
- MIC [6]: 8 to 16 µg/mL (≈ 33.6 to 67.1 µM)
- MIC [7]: 8 to 16 µg/mL (≈ 33.6 to 67.1 µM)
- MIC [8]: 4 to 16 µg/mL
- MIC [9]: 2 µg/mL

Compound: S=C([S-])N1CCCCC1.[Na+]
- fold change (FC) [16]: < 320
- fold change (FC) [17]: < 320
- Activity [12]: Non-Toxic
- Activity [18]: 3.55%
- inhibition zone (IZ) [1]: 24.2 mm
- MIC [2]: < 0.0312 µg/mL
- Activity [19]: inactive
- Activity [13]: Non-Toxic
- MIC [14]: > 128 µg/mL
- MIC [3]: 4 to 16 µg/mL
- Activity [20]: Active
- Activity [21]: 1 to 2 log10CFU/ml
- inhibition zone (IZ) [5]: 23.9 mm
- MIC [6]: < 0.0312 µg/mL
- MIC [7]: 0.25 µg/mL
- MBC [22]: < 0.0312 µg/mL
- Activity [15]: Non-Toxic
- MIC [8]: < 16 µg/mL
- MBC [23]: 1 µg/mL
- IC50 [10]: 634 µg/mL

Compound: S=C([S-])N1CCCC1.[Na+]
- fold change (FC) [17]: < 320
- Activity [12]: Non-Toxic
- inhibition zone (IZ) [1]: 22.8 mm
- MIC [2]: < 0.0312 µg/mL
- Activity [13]: Non-Toxic
- MIC [14]: > 128 µg/mL
- MIC [3]: 2 to 8 µg/mL
- inhibition zone (IZ) [5]: 22.1 mm
- MIC [6]: < 0.0312 µg/mL
- MIC [7]: 2 µg/mL
- Activity [15]: Non-Toxic
- MIC [8]: < 16 µg/mL
- Activity [24]: 9 to 10 log10CFU/ml
- IC50 [10]: 349 µg/mL

Compound: O=C(O)CN1CCN(CC(=O)O)CCN(CC(=O)O)CC1
- inhibition zone (IZ) [1]: 20.3 mm
- inhibition zone (IZ) [5]: 22.9 mm
- Activity [25]: Active

Other lines, results leading:

- inhibition zone (IZ) [1]: inactive
- MIC [2]: 1 to 8 µg/mL (≈ 3.15 to 25.2 µM)
- MIC [3]: 2 to 4 µg/mL
- inhibition zone (IZ) [5]: inactive
- MIC [6]: < 1 µg/mL
- MIC [7]: 4 to 16 µg/mL (≈ 12.6 to 50.4 µM)
- MIC [8]: 1 to 8 µg/mL
- MIC [9]: 4 µg/mL
Compound: CCCCCCCCN(CCCCCCCC)C(=S)S

- inhibition zone (IZ) [1]: inactive
- MIC [2]: inactive
- MIC [3]: 0.25 µg/mL
- inhibition zone (IZ) [5]: inactive
- MIC [6]: 16 µg/mL (≈ 90.2 µM)
- MIC [7]: 16 µg/mL (≈ 90.2 µM)
- MIC [8]: 2 to 16 µg/mL
- MIC [9]: inactive
Compound: CCCCCCNC(=S)S

- inhibition zone (IZ) [1]: inactive
- MIC [2]: inactive
- MIC [3]: inactive
- inhibition zone (IZ) [5]: inactive
- MIC [6]: inactive
- MIC [7]: inactive
- MIC [8]: inactive
- MIC [9]: inactive
Compound: CCCCCCCCCCCCCCNC(=S)S

- inhibition zone (IZ) [1]: inactive
- MIC [2]: 8 to 16 µg/mL (≈ 30.6 to 61.2 µM)
- MIC [3]: 8 to 16 µg/mL
- inhibition zone (IZ) [5]: inactive
- MIC [6]: 16 µg/mL (≈ 61.2 µM)
- MIC [7]: 8 µg/mL (≈ 30.6 µM)
- MIC [8]: 4 to 16 µg/mL
- MIC [9]: 8 µg/mL
Compound: CCCCCCN(CCCCCC)C(=S)S

Source: ChEMBL document CHEMBL4265960, “Dithiocarbamates: Efficient metallo-β-lactamase inhibitors with good antibacterial activity when combined with meropenem” (Bioorg Med Chem Lett, 2018)
